Our source for the Activity values is ChEMBL document CHEMBL3045011, “Synthesis and Herbicidal Activities of 2-(5-Isoxazolyloxy)-acetamide Derivatives” (J Pestic Sci, 1998).

The source made the active and inactive calls. The calls are words filed in the database; no cut-off is given here.

Series [1] deals with Digitaria ciliaris. Nature of the series: Herbicidal activity against Digitaria ciliaris assessed as seedling death under green house at 4 kg/ha at 25 degC measured after 4 weeks. Format: functional, organism-based.
Series [2] has as its system Persicaria lapathifolia. The series can be described thus: Herbicidal activity against Persicaria lapathifolia assessed as seedling death under green house at 4 kg/ha at 25 degC measured after 4 weeks. Format: functional, organism-based.
The subject of series [3] is Echinochloa crus-galli. The series can be described thus: Herbicidal activity against Echinochloa crus-galli (barnyard grass) assessed as seedling death under green house at 4 kg/ha at 25 degC measured after 4 weeks. Format: functional, organism-based.
For series [4], the system named is Amaranthus viridis. Nature of the series: Herbicidal activity against Amaranthus viridis assessed as seedling death under green house at 4 kg/ha at 25 degC measured after 4 weeks. In kind it is functional, organism-based.
Series [5] concerns Echinochloa crus-galli. Nature of the series: Herbicidal activity against Echinochloa crus-galli (barnyard grass) assessed as seedling death under green house at 1 kg/ha at 25 degC measured after 4 weeks. In kind it is functional, organism-based.
Series [6] has as its system Digitaria ciliaris. Nature of the series: Herbicidal activity against Digitaria ciliaris assessed as seedling death under green house at 0.5 kg/ha at 25 degC measured after 4 weeks. Format: functional, organism-based.
For series [7], the system named is Gossypium hirsutum. The series can be described thus: Toxicity in Gossypium hirsutum cv. Hakushuu (cotton) assessed as seedling death under green house at 1 kg/ha at 25 degC measured after 4 weeks by crop selectivity assay. Format: organism-based. The following applies: in vivo, 672 h.
Series [8] has as its system Digitaria ciliaris. Nature of the series: Herbicidal activity against Digitaria ciliaris assessed as seedling death under green house at 1 kg/ha at 25 degC measured after 4 weeks. Format: functional, organism-based.
Series [9] relates to Triticum aestivum. Nature of the series: Toxicity in Triticum aestivum cv. Nohrin-61 (wheat) assessed as seedling death under green house at 0.5 kg/ha at 25 degC measured after 4 weeks by crop selectivity assay. Format: organism-based. To be noted: in vivo, 672 h.
The test system of series [10] is Glycine max. Nature of the series: Toxicity in Glycine max cv. Tamahomare (soybean) assessed as seedling death under green house at 0.5 kg/ha at 25 degC measured after 4 weeks by crop selectivity assay. In kind it is organism-based. The following applies: in vivo, 672 h.
Series [11] concerns Gossypium hirsutum. Nature of the series: Toxicity in Gossypium hirsutum cv. Hakushuu (cotton) assessed as seedling death under green house at 0.5 kg/ha at 25 degC measured after 4 weeks by crop selectivity assay. The following applies: in vivo, 672 h. In kind it is organism-based.
The test system of series [12] is Digitaria ciliaris. The series can be described thus: Herbicidal activity against Digitaria ciliaris assessed as seedling death under green house at 0.25 kg/ha at 25 degC measured after 4 weeks. Format: functional, organism-based.
Series [13] deals with Persicaria lapathifolia. The series can be described thus: Herbicidal activity against Persicaria lapathifolia assessed as seedling death under green house at 0.25 kg/ha at 25 degC measured after 4 weeks. In kind it is functional, organism-based.
Series [14] concerns Persicaria lapathifolia. Nature of the series: Herbicidal activity against Persicaria lapathifolia assessed as seedling death under green house at 0.5 kg/ha at 25 degC measured after 4 weeks. Format: functional, organism-based.
Series [15] concerns Glycine max. The series can be described thus: Toxicity in Glycine max cv. Tamahomare (soybean) assessed as seedling death under green house at 0.25 kg/ha at 25 degC measured after 4 weeks by crop selectivity assay. To be noted: in vivo, 672 h. In kind it is organism-based.
Series [16] has as its system Amaranthus viridis. Nature of the series: Herbicidal activity against Amaranthus viridis assessed as seedling death under green house at 0.25 kg/ha at 25 degC measured after 4 weeks. In kind it is functional, organism-based.
The test system of series [17] is Gossypium hirsutum. The series can be described thus: Toxicity in Gossypium hirsutum cv. Hakushuu (cotton) assessed as seedling death under green house at 0.25 kg/ha at 25 degC measured after 4 weeks by crop selectivity assay. To be noted: in vivo, 672 h. In kind it is organism-based.
Series [18] concerns Triticum aestivum. Nature of the series: Toxicity in Triticum aestivum cv. Nohrin-61 (wheat) assessed as seedling death under green house at 0.25 kg/ha at 25 degC measured after 4 weeks by crop selectivity assay. Format: organism-based. The following applies: in vivo, 672 h.
Series [19] deals with Amaranthus viridis. The series can be described thus: Herbicidal activity against Amaranthus viridis assessed as seedling death under green house at 0.5 kg/ha at 25 degC measured after 4 weeks. Format: functional, organism-based.
Series [20] concerns Persicaria lapathifolia. The series can be described thus: Herbicidal activity against Persicaria lapathifolia assessed as seedling death under green house at 1 kg/ha at 25 degC measured after 4 weeks. In kind it is functional, organism-based.
Series [21] concerns Echinochloa crus-galli. Nature of the series: Herbicidal activity against Echinochloa crus-galli (barnyard grass) assessed as seedling death under green house at 0.5 kg/ha at 25 degC measured after 4 weeks. In kind it is functional, organism-based.
The subject of series [22] is Echinochloa crus-galli. Nature of the series: Herbicidal activity against Echinochloa crus-galli (barnyard grass) assessed as seedling death under green house at 0.25 kg/ha at 25 degC measured after 4 weeks. In kind it is functional, organism-based.
Series [23] deals with Amaranthus viridis. Nature of the series: Herbicidal activity against Amaranthus viridis assessed as seedling death under green house at 1 kg/ha at 25 degC measured after 4 weeks. Format: functional, organism-based.
Series [24] deals with Triticum aestivum. The series can be described thus: Toxicity in Triticum aestivum cv. Nohrin-61 (wheat) assessed as seedling death under green house at 1 kg/ha at 25 degC measured after 4 weeks by crop selectivity assay. Format: organism-based. To be noted: in vivo, 672 h.
For series [25], the system named is Glycine max. The series can be described thus: Toxicity in Glycine max cv. Tamahomare (soybean) assessed as seedling death under green house at 1 kg/ha at 25 degC measured after 4 weeks by crop selectivity assay. In kind it is organism-based. The following applies: in vivo, 672 h.
Series [26] deals with Echinochloa crus-galli. The series can be described thus: Herbicidal activity against Echinochloa crus-galli (barnyard grass) assessed as seedling death under green house at 2 kg/ha at 25 degC measured after 4 weeks. In kind it is functional, organism-based.
Series [27] has as its system Digitaria ciliaris. Nature of the series: Herbicidal activity against Digitaria ciliaris assessed as seedling death under green house at 2 kg/ha at 25 degC measured after 4 weeks. In kind it is functional, organism-based.

As for `Cc1c(C(F)(F)F)noc1OCC(=O)Nc1ccccc1`, the result in the series with Digitaria ciliaris [1], in the series with Persicaria lapathifolia [2], in the series with Echinochloa crus-galli [3] and in the series with Amaranthus viridis [4] was inactive.
Consider `CN(C(=O)COc1cc(C(F)(F)F)no1)c1ccccc1`, for which the outcome in the series with Echinochloa crus-galli [5], in the series on Digitaria ciliaris [6] and in the series with Digitaria ciliaris [8] was Active. Further, the Activity result in the series on Gossypium hirsutum [7], in the series with Triticum aestivum [9], with Glycine max [10] and in the series with Gossypium hirsutum [11] was “Non-toxic” each time.
Take `CN(C(=O)COc1cc(-c2ccccc2)no1)c1ccccc1`: the result in the series with Digitaria ciliaris [1], in the series on Persicaria lapathifolia [2], with Echinochloa crus-galli [3] and with Amaranthus viridis [4] was inactive.
Turning to `CN(C(=O)COc1nnc(C(F)(F)F)s1)c1ccccc1`, the result in the series with Digitaria ciliaris [12], with Persicaria lapathifolia [13], in the series on Persicaria lapathifolia [14], in the series with Amaranthus viridis [16] and in the series with Amaranthus viridis [19] was inactive. The Activity result with Triticum aestivum [9], in the series on Glycine max [15], in the series with Glycine max [10], in the series on Gossypium hirsutum [17], in the series on Triticum aestivum [18] and with Gossypium hirsutum [11] was “Non-toxic” throughout.
For `Cc1c(C(F)(F)F)noc1OCC(=O)N(C)c1ccccc1Cl`, the outcome in the series on Digitaria ciliaris [12], in the series on Persicaria lapathifolia [20], in the series with Echinochloa crus-galli [21], in the series with Echinochloa crus-galli [5], with Digitaria ciliaris [6] and with Digitaria ciliaris [8] was Active. For the same molecule, the result in the series with Amaranthus viridis [16], in the series with Echinochloa crus-galli [22], in the series on Amaranthus viridis [23] and with Amaranthus viridis [19] was Active. Further, the Activity result with Gossypium hirsutum [17] was “Non-toxic”.
Regarding `Cc1cccc(C)c1N(C)C(=O)COc1onc(C(F)(F)F)c1C`, the result with Digitaria ciliaris [1], in the series on Persicaria lapathifolia [2], with Echinochloa crus-galli [3] and with Amaranthus viridis [4] was inactive.
For `Cc1c(C(F)(F)F)noc1OCC(=O)N(C)C(C)(C)C`, the outcome with Digitaria ciliaris [1], in the series on Persicaria lapathifolia [2], with Echinochloa crus-galli [3] and in the series with Amaranthus viridis [4] was inactive.
Consider `Cc1c(C(F)(F)F)noc1OCC(=O)N(C)c1cccc(F)c1`, for which the result in the series with Digitaria ciliaris [12], in the series on Persicaria lapathifolia [20], in the series on Echinochloa crus-galli [21], with Echinochloa crus-galli [5], in the series with Digitaria ciliaris [6] and in the series on Digitaria ciliaris [8] was Active. The result with Amaranthus viridis [16], with Echinochloa crus-galli [22], in the series on Amaranthus viridis [23] and in the series with Amaranthus viridis [19] was Active. Further, the Activity result in the series with Glycine max [15], with Gossypium hirsutum [17] and in the series with Triticum aestivum [18] was “Non-toxic” each time.
As to `CN(C(=O)COc1onc(C(F)(F)F)c1-c1ccccc1)c1ccccc1`, the Activity entry with Triticum aestivum [24], with Glycine max [25], in the series with Gossypium hirsutum [7], in the series with Triticum aestivum [9], in the series with Glycine max [10] and with Gossypium hirsutum [11] was “Non-toxic” in each case. In addition, the result with Echinochloa crus-galli [21], with Echinochloa crus-galli [5], in the series on Digitaria ciliaris [6] and with Digitaria ciliaris [8] was Active.
For the molecule `Cc1c(C(F)(F)F)noc1OCC(=O)N(C)c1ccccc1`, the Activity result with Triticum aestivum [24], with Glycine max [25], with Triticum aestivum [9], in the series with Glycine max [10] and in the series on Gossypium hirsutum [11] was “Non-toxic” in each case. Further, the outcome with Echinochloa crus-galli [21], in the series on Echinochloa crus-galli [5], in the series with Digitaria ciliaris [6], in the series with Digitaria ciliaris [8] and with Amaranthus viridis [23] was Active.
Turning to `CN(C(=O)COc1nc2ccccc2s1)c1ccccc1` [MEFENACET], the Activity entry with Triticum aestivum [9], with Glycine max [15], in the series on Glycine max [10], with Gossypium hirsutum [17], with Triticum aestivum [18] and in the series with Gossypium hirsutum [11] was “Non-toxic” throughout. Moreover, the outcome with Persicaria lapathifolia [13], in the series with Persicaria lapathifolia [14] and in the series with Amaranthus viridis [16] was inactive.
With `Cc1c(C(F)(F)F)noc1OCC(=O)N(C)c1ccccc1-c1ccccc1`, the result in the series with Digitaria ciliaris [1], in the series with Persicaria lapathifolia [2], in the series on Echinochloa crus-galli [3] and in the series with Amaranthus viridis [4] was inactive.
`Cc1c(C(F)(F)F)noc1OCC(=O)N(C)c1ccccc1Br`: the result in the series on Digitaria ciliaris [12], in the series with Persicaria lapathifolia [20], with Echinochloa crus-galli [21], in the series with Echinochloa crus-galli [5], with Digitaria ciliaris [6] and with Digitaria ciliaris [8] was Active. Further, the result in the series with Echinochloa crus-galli [22], in the series on Amaranthus viridis [23] and in the series with Amaranthus viridis [19] was Active. Further, the Activity result in the series on Glycine max [15], in the series with Gossypium hirsutum [17] and in the series with Triticum aestivum [18] was “Non-toxic” each time.
For the molecule `CCCCCCN(C)C(=O)COc1onc(C(F)(F)F)c1C`, the result with Echinochloa crus-galli [26] and in the series on Digitaria ciliaris [27] was Active.
